In US12110305B2, “Prodrugs of phosphonamide nucleotide analogues and their pharmaceutical use” (priority 2020, dated 2024):

Tested on: HIV-1 (IIIB)
Test: Antiviral (HIV) assay in MT-4 cells
Assay type: cell-based
Conditions: Human immunodeficiency virus 1, MT4, 120 h; HIV-1 IIIB in MT-4 cells, 5 days incubation, Cell Titer Glo; average of at least two independent experiments
Outline: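 MT-4 cells, infected with HIV-1 IIIB (1:250 dilution of concentrated stock) or mock-infected, were exposed to 1:3 serially diluted compounds in RPMI with 10% FBS. After 5 days at 37° C., CellTiter-Glo luminescence was read. EC50 = concentration causing […], from sigmoidal dose-response fits.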

Structure (SMILES) | EC50
CCCCCCOC(=O)C(C)(C)NP(=O)(CO[C@H](C)Cn1cnc2c(N)ncnc21)NC(C)(C)C(=O)OCC1(F)CC1 (stereo partly drawn) [Example 78, (1-Fluorocyclopropyl)methyl 2-((((((R)-1-(6-amino-9H-purin-9-yl)propan-2-yl)oxy)methyl)((1-(hexyloxy)-2-methyl-1-oxopropan-2-yl)amino)phosphoryl)amino)-2-methylpropanoate] | > 500 nM
CCCCCCOC(=O)C(C)(C)NP(=O)(CO[C@H](C)Cn1cnc2c(N)ncnc21)NC(C)(C)C(=O)OCC(C)(C)OC (stereo partly drawn) [Example 79, Hexyl 2-((((((R)-1-(6-amino-9H-purin-9-yl)propan-2-yl)oxy)methyl)((1-(2-methoxy-2-methylpropoxy)-2-methyl-1-oxopropan-2-yl)amino)phosphoryl)amino)-2-methylpropanoate] | 271 nM
CCCCCCOC(=O)C(C)(C)NP(=O)(CO[C@H](C)Cn1cnc2c(N)ncnc21)NC(C)(C)C(=O)OCC12CCC(CC1)C2 (stereo partly drawn) [Example 80, Bicyclo[2.2.1]heptan-1-ylmethyl 2-((((((R)-1-(6-amino-9H-purin-9-yl)propan-2-yl)oxy)methyl)((1-(hexyloxy)-2-methyl-1-oxopropan-2-yl)amino)phosphoryl)amino)-2-methylpropanoate] | > 500 nM
CCCCCCOC(=O)C(C)(C)NP(=O)(CO[C@H](C)Cn1cnc2c(N)ncnc21)NC(C)(C)C(=O)OC(C)C1CC1 (stereo partly drawn) [Example 81, 1-Cyclopropylethyl 2-((((((R)-1-(6-amino-9H-purin-9-yl)propan-2-yl)oxy)methyl)((1-(hexyloxy)-2-methyl-1-oxopropan-2-yl)amino)phosphoryl)amino)-2-methylpropanoate] | > 500 nM
CCCCCCOC(=O)C(C)(C)NP(=O)(CO[C@H](C)Cn1cnc2c(NCc3oc(=O)oc3C)ncnc21)NC(C)(C)C(=O)OCCCCCC [Example 82, Dihexyl 2,2′-(((((1-(6-(((5-methyl-2-oxo-1,3-dioxol-4-yl)methyl)amino)-9H-purin-9-yl)propan-2-yl)oxy)methyl)phosphoryl)bis(azanediyl))(R)-bis(2-methylpropanoate)] | 345 nM
CCCCCCOC(=O)C(C)(C)NP(=O)(CO[C@H](C)Cn1cnc2c(=N)n(Cc3oc(=O)oc3C)cnc21)NC(C)(C)C(=O)OCCCCCC [Example 83, Dihexyl 2,2′-(((((1-(6-imino-1-((5-methyl-2-oxo-1,3-dioxol-4-yl)methyl)-1,6-dihydro-9H-purin-9-yl)propan-2-yl)oxy)methyl)phosphoryl)bis(azanediyl))(R)-bis(2-methylpropanoate)] | 6 nM
CCCCCCOC(=O)C(C)(C)NP(=O)(CO[C@H](C)Cn1cnc2/c(=N\Cc3oc(=O)oc3C)n(Cc3oc(=O)oc3C)cnc21)NC(C)(C)C(=O)OCCCCCC [Example 84, Dihexyl 2,2′-(((((1-(1-((5-methyl-2-oxo-1,3-dioxol-4-yl)methyl)-6-(((5-methyl-2-oxo-1,3-dioxol-4-yl)methyl)imino)-1,6-dihydro-9H-purin-9-yl)propan-2-yl)oxy)methyl)phosphoryl)bis(azanediyl))(R,E)-bis(2-methylpropanoate)] | 229 nM
C[C@H](Cn1cnc2c(N)ncnc21)OCP(=O)(NC(C)(C)C(=O)O[C@H]1C[C@@H](c2ccccc2)C1)NC(C)(C)C(=O)O[C@H]1C[C@@H](c2ccccc2)C1 [Example 85, Bis((1s,3S)-3-phenylcyclobutyl) 2,2′-((((((R)-1-(6-amino-9H-purin-9-yl)propan-2-yl)oxy)methyl)phosphoryl)bis(azanediyl))bis(2-methylpropanoate)] | 5 nM
C[C@H](Cn1cnc2c(N)ncnc21)OCP(=O)(NC(C)(C)C(=O)OC1CC2(CCCCC2)C1)NC(C)(C)C(=O)OC1CC2(CCCCC2)C1 (stereo partly drawn) [Example 86, Di(spiro[3.5]nonan-2-yl) 2,2′-(((((1-(6-amino-9H-purin-9-yl)propan-2-yl)oxy)methyl)phosphoryl)bis(azanediyl))(R)-bis(2-methylpropanoate)] | 5 nM
C[C@H](Cn1cnc2c(N)ncnc21)OCP(=O)(NC(C)(C)C(=O)OCC12CCC(CC1)C2)NC(C)(C)C(=O)OCC12CCC(CC1)C2 [Example 87, Bis(bicyclo[2.2.1]heptan-1-ylmethyl) 2,2′-(((((1-(6-amino-9H-purin-9-yl)propan-2-yl)oxy)methyl)phosphoryl)bis(azanediyl))(R)-bis(2-methylpropanoate)] | 6 nM
C[C@H](Cn1cnc2c(N)ncnc21)OCP(=O)(NC(C)(C)C(=O)OCC1CCC(F)(F)CC1)NC(C)(C)C(=O)OCC1CCC(F)(F)CC1 [Example 88, Bis((4,4-difluorocyclohexyl)methyl) 2,2′-(((((1-(6-amino-9H-purin-9-yl)propan-2-yl)oxy)methyl)phosphoryl)bis(azanediyl))(R)-bis(2-methylpropanoate)] | 3 nM
C[C@H](Cn1cnc2c(N)ncnc21)OCP(=O)(NC(C)(C)C(=O)OCC1CCCCCC1)NC(C)(C)C(=O)OCC1CCCCCC1 [Example 89, Bis(cycloheptylmethyl) 2,2′-(((((1-(6-amino-9H-purin-9-yl)propan-2-yl)oxy)methyl)phosphoryl)bis(azanediyl))(R)-bis(2-methylpropanoate)] | 6 nM
C[C@H](Cn1cnc2c(N)ncnc21)OCP(=O)(NC(C)(C)C(=O)OC1CC(C2CCC2)C1)NC(C)(C)C(=O)OC1CC(C2CCC2)C1 (stereo partly drawn) [Example 90, Di([1,1′-bi(cyclobutan)]-3-yl) 2,2′-(((((1-(6-amino-9H-purin-9-yl)propan-2-yl)oxy)methyl)phosphoryl)bis(azanediyl))(R)-bis(2-methylpropanoate)] | 7 nM
C[C@H](Cn1cnc2c(N)ncnc21)OCP(=O)(NC(C)(C)C(=O)OC[C@H]1CC[C@H](C)CC1)NC(C)(C)C(=O)OC[C@H]1CC[C@H](C)CC1 [Example 91, Bis((trans-4-methylcyclohexyl)methyl) 2,2′-((((((R)-1-(6-amino-9H-purin-9-yl)propan-2-yl)oxy)methyl)phosphoryl)bis(azanediyl))bis(2-methylpropanoate)] | 5 nM
CCC[C@H]1CC[C@H](COC(=O)C(C)(C)NP(=O)(CO[C@H](C)Cn2cnc3c(N)ncnc32)NC(C)(C)C(=O)OC[C@H]2CC[C@H](CCC)CC2)CC1 [Example 92] | 23 nM
C[C@H](Cn1cnc2c(N)ncnc21)OCP(=O)(NC(C)(C)C(=O)O[C@H]1CC[C@H](c2ccccc2)CC1)NC(C)(C)C(=O)O[C@H]1CC[C@H](c2ccccc2)CC1 [Example 93, Bis(trans-4-phenylcyclohexyl) 2,2′-((((((R)-1-(6-amino-9H-purin-9-yl)propan-2-yl)oxy)methyl)phosphoryl)bis(azanediyl))bis(2-methylpropanoate)] | 97 nM
CCCCCCOC(=O)C(C)(C)NP(=O)(CO[C@H](C)Cn1cnc2c(NC(=O)OCCOC(=O)c3ccccc3)ncnc21)NC(C)(C)C(=O)OCCCCCC [Example 94, Dihexyl 2,2′-(((((1-(6-(((2-(benzoyloxy)ethoxy)carbonyl)amino)-9H-purin-9-yl)propan-2-yl)oxy)methyl)phosphoryl)bis(azanediyl))(R)-bis(2-methylpropanoate)] | 130 nM
CCCCCCOC(=O)C(C)(C)NP(=O)(CO[C@H](C)Cn1cnc2c(NC(=O)OCC(=O)OCc3oc(=O)oc3C)ncnc21)NC(C)(C)C(=O)OCCCCCC [Example 95, Dihexyl 2,2′-(((((1-(6-(((2-((5-methyl-2-oxo-1,3-dioxol-4-yl)methoxy)-2-oxoethoxy)carbonyl)amino)-9H-purin-9-yl)propan-2-yl)oxy)methyl)phosphoryl)bis(azanediyl))(R)-bis(2-methylpropanoate)] | 27 nM
